Patent EP4707280A1, “1,4-CINEOLE DERIVATIVE AND INTERMEDIATE THEREOF, HERBICIDE CONTAINING SAID DERIVATIVE AS ACTIVE INGREDIENT, METHOD FOR USING HERBICIDE, AND METHOD FOR PREPARING AGROCHEMICAL COMPOSITION” (HOKKO CHEMICAL INDUSTRY CO., LTD., priority 2023, dated 2024)

Legend:
Type in all cases: in vivo
[1] = tested on: Echinochloa crus-galli var. formosensis at the three-leaf stage; assay: Comparative Example: herbicidal effect test by application during growth period of paddy rice (three-leaf stage, Table 7); details: active ingredient 7.5 g per 10 ares, emulsifiable concentrate applied by dropper to flooded pots, 21 days after chemical application, triplicate; for inhibition at 75 g/ha: 504 h, read-out: Weed inhibition rate (%)
Procedure: As an example, the herbicidal effect on Echinochloa crus-galli var. formosensis at the three-leaf stage was confirmed by the following method, and the results are specifically shown in Table 7 as a comparative example.
(§1) Wagner pots with an area of […] were filled with paddy soil, followed by addition of water and incorporation of chemical fertilizer (N:P:K = 16:16:16), after which puddling was performed. After that, 30 seeds of Echinochloa crus-galli var. formosensis were sown at a depth of 0 cm to 1 cm. Immediately after sowing, the pots were flooded and a water depth of approximately 3 cm was maintained. Subsequent management was conducted in a glass greenhouse. When Echinochloa crus-galli var. formosensis reached the three-leaf stage, an emulsifiable concentrate prepared according to Formulation Example 5 using the compound shown below was diluted with water, and a specified amount of the diluted solution was applied by dropper. The amount of the active ingredient to be applied was equivalent to 7.5 g per 10 ares. The test was conducted in triplicate for each chemical concentration group, and the weed inhibition rate (%) was determined 21 days after chemical application using the following formula (Math. 1).

[2] = tested on: Echinochloa crus-galli var. formosensis; assay: Test Example 1: herbicidal effect test by soil application in paddy rice; details: Echinochloa crus-galli, soil, 336 h; 120 g active ingredient per 10 ares; applied immediately after sowing, flooded pots; 14 days after application; read-out: weed inhibition rate
How it was run: (§2)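 Flooded-pot paddy assay: sow at 0–1 cm, flood to about 3 cm, then apply diluted emulsifiable concentrate by dropper, 120 g a.i. per 10 ares; greenhouse-grown.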

[3] = tested on: Echinochloa crus-galli var. formosensis; assay: Test Example 2: herbicidal effect test by application during growth period of paddy rice; details: Echinochloa crus-galli; 120 g per 10 ares; applied seven days after sowing, flooded pots; 14 days after application; read-out: weed inhibition rate
How it was run: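 Paddy soil in flooded pots (water depth about 3 cm) was sown with weed seeds and kept in a glass greenhouse. Seven days after sowing, a diluted emulsifiable concentrate was applied by dropper at 120 g active ingredient per 10 ares. Weed inhibition was evaluated 14 days after application, in duplicate.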

[4] = tested on: Digitaria ciliaris; assay: Test Example 3: herbicidal effect test by soil application in upland field; details: Digitaria ciliaris, 120 g per 10 ares, sprayed one day after sowing, 14 days after application, read-out: weed inhibition rate
How it was run: (§3)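 Weed inhibition (%) was assessed 14 days after treatment, in duplicate per concentration group. Seeds had been mixed into the upper 1 cm of upland alluvial loam, and the soil surface was sprayed one day later with the diluted emulsifiable concentrate at 120 g active ingredient per 10 ares.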

[5] = tested on: Echinochloa crus-galli; assay: as above; details: Echinochloa crus-galli, 120 g per 10 ares, sprayed one day after sowing, 14 days after application, read-out: weed inhibition rate
How it was run: as §3

[6] = tested on: Digitaria ciliaris; assay: Test Example 4: herbicidal effect test by stem and leaf treatment in upland field; details: Digitaria ciliaris; 120 g per 10 ares; sprayed seven days after sowing, upland soil; 14 days after application; read-out: weed inhibition rate
[7] = tested on: Echinochloa crus-galli; assay: as above; details: Echinochloa crus-galli; 120 g per 10 ares; sprayed seven days after sowing, upland soil; 14 days after application; read-out: weed inhibition rate
[8] = tested on: Scirpus juncoides; assay: Test Example 1: herbicidal effect test by soil application in paddy rice; details: Schoenoplectiella juncoides, soil, 336 h; 120 g active ingredient per 10 ares; applied immediately after sowing, flooded pots; 14 days after application; read-out: weed inhibition rate
How it was run: as §2

[9] = tested on: Lindernia pyxidaria; assay: as above; details: 336 h, 120 g active ingredient per 10 ares, applied immediately after sowing, flooded pots, 14 days after application, read-out: weed inhibition rate
How it was run: (§4)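 Inhibition rate (%) read 14 days after treatment, duplicate pots. Water-diluted emulsifiable concentrate was applied by dropper at 120 g active ingredient/10 ares right after sowing. Seeds (30 per species, 0–1 cm deep) went into puddled paddy soil kept flooded at about 3 cm in a greenhouse.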

[10] = tested on: Monochoria vaginalis; assay: as above; details: Pontederia vaginalis, soil, 336 h; 120 g active ingredient per 10 ares; applied immediately after sowing, flooded pots; 14 days after application; read-out: weed inhibition rate
How it was run: as §4

[11] = tested on: Chenopodium album; assay: Test Example 4: herbicidal effect test by stem and leaf treatment in upland field; details: 120 g per 10 ares, sprayed seven days after sowing, upland soil, 14 days after application, read-out: weed inhibition rate
[12] = tested on: Amaranthus viridis; assay: Test Example 3: herbicidal effect test by soil application in upland field; details: Amaranthus viridis, 120 g per 10 ares, sprayed one day after sowing, 14 days after application, read-out: weed inhibition rate
How it was run: as §3

[13] = tested on: Echinochloa crus-galli var. formosensis; assay: Test Example 5: herbicidal effect test by soil application in paddy rice (low dose); details: Echinochloa crus-galli, soil, 336 h; 7.5 g per 10 ares; applied immediately after sowing, flooded pots; 14 days after application; read-out: weed inhibition rate
How it was run: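 Paddy-soil pots, weeds sown 0–1 cm deep and flooded to about 3 cm in a greenhouse. Emulsifiable concentrate diluted in water and dropped in right after sowing at 7.5 g active ingredient per 10 ares. Duplicates; effect scored 14 days after application.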

[14] = tested on: Echinochloa crus-galli var. formosensis; assay: Test Example 6: herbicidal effect test by application during growth period of paddy rice (low dose); details: Echinochloa crus-galli; 7.5 g per 10 ares; applied seven days after sowing, flooded pots; 14 days after application; read-out: weed inhibition rate
How it was run: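 Emulsifiable concentrate, water-diluted, dropped onto flooded paddy pots 7 days post-sowing at 7.5 g active ingredient/10 a. Greenhouse-grown weeds; percent inhibition scored at day 14 after treatment.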

[15] = tested on: Digitaria ciliaris; assay: Test Example 7: herbicidal effect test by soil application in upland field (low dose); details: Digitaria ciliaris, 7.5 g per 10 ares, sprayed one day after sowing, 14 days after application, read-out: weed inhibition rate
How it was run: (§5)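 Upland alluvial loam pots, seeds mixed into top 1 cm of soil; one day after sowing, diluted emulsifiable concentrate sprayed on soil at 100 L/10 a, giving 7.5 g active ingredient/10 a. Duplicate pots; weed inhibition rate (%) scored 14 days after application.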

[16] = tested on: Echinochloa crus-galli; assay: as above; details: Echinochloa crus-galli, 7.5 g per 10 ares, sprayed one day after sowing, 14 days after application, read-out: weed inhibition rate
How it was run: as §5

[17] = tested on: Amaranthus viridis; assay: as above; details: 7.5 g per 10 ares, sprayed one day after sowing, upland soil, 14 days after application, read-out: weed inhibition rate
[18] = tested on: Echinochloa crus-galli; assay: Test Example 8: herbicidal effect test by stem and leaf treatment in upland field (low dose); details: Echinochloa crus-galli; 7.5 g per 10 ares; sprayed seven days after sowing, upland soil; 14 days after application; read-out: weed inhibition rate
[19] = tested on: Chenopodium album; assay: Test Example 3: herbicidal effect test by soil application in upland field; details: 120 g per 10 ares, sprayed one day after sowing, 14 days after application, read-out: weed inhibition rate
How it was run: as §3

[20] = tested on: Scirpus juncoides; assay: Test Example 5: herbicidal effect test by soil application in paddy rice (low dose); details: Schoenoplectiella juncoides, 336 h, 7.5 g per 10 ares, applied immediately after sowing, flooded pots, 14 days after application, read-out: weed inhibition rate
Procedure: The present test was conducted in duplicate for each chemical concentration group, and the weed inhibition rate (%) was determined 14 days after chemical application using the following formula (Math. 1). [formula]
as §1, with “that,” for “that, 30”, “formosensis, broad-leaved weeds (Monochoria vaginalis), and Scirpus juncoides” for “formosensis”, “cm, 30 seeds each.” for “cm.”, “Immediately thereafter,” for “When Echinochloa crus-galli var. formosensis reached the three-leaf stage,”, “ares.” for “ares. The test was conducted in triplicate for each chemical concentration group, and the weed inhibition rate (%) was determined 21 days after chemical application using the following formula (Math. 1).”
The present test was conducted in duplicate for each chemical concentration group, and the herbicidal effect was evaluated 14 days after chemical application using the same criteria as in Test Example 1.

Cc1ccccc1COC1CC2(C(C)C)CCC1(C)O2 (centres unmarked)
73%: inhibition at 75 g/ha [1]

CC(C)[C@]12C[C@@H](OCc3ccccc3F)[C@](C)(C[C@@H]1C)O2 [1-93, (1S,2R,4R,5S)-2-[(2-fluorophenyl)methoxy]-1,5-dimethyl-4-isopropyl-7-oxabicyclo[2.2.1]heptane]
≥ 80%: pest or weed control at 1200 g/ha [2] | inhibition at 1200 g/ha [3] | inhibition at 1200 g/ha [4] | inhibition at 1200 g/ha [5] | inhibition at 1200 g/ha [6] | inhibition at 1200 g/ha [7]
100%: inhibition at 75 g/ha [1]

CC(C)[C@]12C[C@@H](OCc3ccccc3F)[C@](C)(CC1c1ccc(F)cc1)O2 (stereo partly drawn) [1-924, (1S,2R,4R)-2-((2-fluorobenzyl)oxy)-5-(4-fluorophenyl)-4-isopropyl-1-methyl-7-oxabicyclo[2.2.1]heptane]
≥ 80%: pest or weed control at 1200 g/ha [2] | pest or weed control at 1200 g/ha [8] | pest or weed control at 1200 g/ha [9] | pest or weed control at 1200 g/ha [10] | inhibition at 1200 g/ha [3] | inhibition at 1200 g/ha [5] | inhibition at 1200 g/ha [11] | inhibition at 1200 g/ha [6] | inhibition at 1200 g/ha [7]

CC(C)[C@]12C[C@@H](OCc3ccccc3F)[C@](C)(C[C@H]1O)O2 [1-68, (1R,2R,4S,5R)-5-[(2-fluorophenyl)methoxy]-4-methyl-1-isopropyl-7-oxabicyclo[2.2.1]heptan-2-ol]
≥ 80%: pest or weed control at 1200 g/ha [2] | inhibition at 1200 g/ha [3] | inhibition at 1200 g/ha [12] | inhibition at 1200 g/ha [4] | inhibition at 1200 g/ha [5] | inhibition at 1200 g/ha [7] | inhibition at 75 g/ha [13] | inhibition at 75 g/ha [14] | inhibition at 75 g/ha [15] | inhibition at 75 g/ha [16] | inhibition at 75 g/ha [17] | inhibition at 75 g/ha [18]

CC(C)[C@]12C[C@@H](OCc3ccccc3C(F)(F)F)[C@](C)(CC1=O)O2 [2-29, (1R,4S,5R)-1-isopropyl-4-methyl-5-((2-(trifluoromethyl)benzyl)oxy)-7-oxabicyclo[2.2.1]heptan-2-one]
≥ 80%: pest or weed control at 1200 g/ha [2] | pest or weed control at 1200 g/ha [8] | inhibition at 1200 g/ha [3] | inhibition at 1200 g/ha [12] | inhibition at 1200 g/ha [19] | inhibition at 1200 g/ha [4] | inhibition at 1200 g/ha [5] | inhibition at 1200 g/ha [6] | inhibition at 1200 g/ha [7] | inhibition at 75 g/ha [13] | inhibition at 75 g/ha [20] | inhibition at 75 g/ha [16] | inhibition at 75 g/ha [17] | inhibition at 75 g/ha [18]

C=C1C(OCc2ccccc2C)C2(C)CCC1(C(C)C)O2 (centres unmarked)
20%: Weed inhibition rate (%) [1]
